Series [1] is described as follows: physchem. The following applies: pH 7.4 buffer.
Description: Solubility in pH 7.4 buffer
The conditions of series [2]: rat, in vivo, po, 10 mg/kg.
Description: Plasma concentration in Long-Evans rat at 10 mg/kg, po
Series [3] in a line: in vivo. The following applies: Long-Evans, rat, brain/plasma, po, 10 mg/kg.
Description: Ratio of drug concentration in Long-Evans rat brain to plasma at 10 mg/kg, po
The conditions of series [4]: rat, in vivo, po, 10 mg/kg. The source holds these as a separate data set.
Description: Drug concentration in Long-Evans rat brain at 10 mg/kg, po

In brackets after ≈: the same amount, converted by molar mass.

Consider `CS(=O)(=O)n1ccc2cc(C(=O)N3CCCC(c4ccnc5ncnn45)C3)ccc21` (racemic), for which the solubility in series [1] was determined as 105 µM (≈ 44.6 µg/mL).

Regarding `C[C@@H]1CCN(C(=O)c2ccc3occc3c2)C[C@H]1c1cc(C(F)F)nc2ncnn12`, the Cp in series [2] worked out at 1640 ng/mL. In series [3], the concentration ratio (Kp) amounted to 0.5. Further, in series [4], the Drug uptake was determined as 788 ng/mL.

The values are drawn from ChEMBL document CHEMBL4665888, “[1,2,4]Triazolo[1,5-a]pyrimidine Phosphodiesterase 2A Inhibitors: Structure and Free-Energy Perturbation-Guided Exploration” (J Med Chem, 2020).
